Values after ≈ are worked out from the molar mass of the structure shown. Like-named read-outs stand apart in the source and are kept apart here.
Key:
[1] = tested on: S. aureus GC 6466; assay: MIC, broth microdilution; details: Staphylococcus aureus
[2] = tested on: S. aureus GC 6335; assay: MIC, broth microdilution; details: Staphylococcus aureus
[3] = tested on: P. aeruginosa GC 2214; assay: MIC, broth microdilution; details: Pseudomonas aeruginosa
[4] = tested on: E. coli GC 2233; assay: MIC, broth microdilution; details: Escherichia coli
[5] = tested on: E. coli GC 2203; assay: MIC, broth microdilution; details: Escherichia coli
[6] = tested on: E. faecalis GC 2265; assay: MIC, broth microdilution; details: Enterococcus faecalis
[7] = tested on: E. coli GC 2270; assay: MIC, broth microdilution; details: Escherichia coli
[8] = tested on: S. pyogenes GC 4563; assay: MIC, broth microdilution; details: Streptococcus pyogenes
[9] = tested on: E. coli GC 3226; assay: MIC, broth microdilution; details: Escherichia coli
[10] = tested on: E. coli GC 2231; assay: MIC, broth microdilution; details: Escherichia coli
[11] = tested on: S. aureus GC 2216; assay: MIC, broth microdilution; details: Staphylococcus aureus
[12] = tested on: E. coli; assay: Range of MIC for E. coli strains; details: Escherichia coli
[13] = tested on: E. faecium GC 2243; assay: MIC, broth microdilution; details: Enterococcus faecium
[14] = tested on: E. coli GC 2236; assay: MIC, broth microdilution; details: Escherichia coli
[15] = tested on: E. coli GC 2271; assay: MIC, broth microdilution; details: Escherichia coli
[16] = tested on: E. coli GC 2234; assay: MIC, broth microdilution; details: Escherichia coli
[17] = tested on: Staph.; assay: Range of MIC for Staph. strains, including MRSA; details: Staphylococcus aureus, MRSA
[18] = tested on: E. faecium GC 4556; assay: MIC, broth microdilution; details: Enterococcus faecium
[19] = tested on: S. aureus GC 6469; assay: MIC, broth microdilution; details: Staphylococcus aureus
[20] = tested on: E. coli GC 2232; assay: MIC, broth microdilution; details: Escherichia coli

- MIC ([1]; GC6466, read-out: MINIMAL INHIBITORY CONCENTRATION MIC, pre-incubated in Mouse Serum): 0.25 mg/L (≈ 0.303 µM)
- MIC ([1]; GC6466, read-out: MINIMAL INHIBITORY CONCENTRATION MIC, pre-incubated in Water): 0.5 mg/L (≈ 0.605 µM)
- MIC ([2]; GC6335, read-out: MINIMAL INHIBITORY CONCENTRATION MIC, pre-incubated in Mouse Serum): 2 mg/L (≈ 2.42 µM)
- MIC ([2]; GC6335, read-out: MINIMAL INHIBITORY CONCENTRATION MIC, pre-incubated in Water): 16 mg/L (≈ 19.4 µM)
- MIC ([3]; GC2214, read-out: MINIMAL INHIBITORY CONCENTRATION MIC, pre-incubated in Mouse Serum): 16 mg/L (≈ 19.4 µM)
- MIC ([3]; GC2214, read-out: MINIMAL INHIBITORY CONCENTRATION MIC, pre-incubated in Water): > 64 mg/L
- MIC ([4]; GC2233, read-out: MINIMAL INHIBITORY CONCENTRATION MIC, pre-incubated in Mouse Serum): 1 mg/L (≈ 1.21 µM)
- MIC ([4]; GC2233, read-out: MINIMAL INHIBITORY CONCENTRATION MIC, pre-incubated in Water): > 64 mg/L
- MIC ([5]; GC2203, read-out: MINIMAL INHIBITORY CONCENTRATION MIC, pre-incubated in Mouse Serum): 0.5 mg/L (≈ 0.605 µM)
- MIC ([5]; GC2203, read-out: MINIMAL INHIBITORY CONCENTRATION MIC, pre-incubated in Water): > 64 mg/L
- MIC ([6]; GC2265, read-out: MINIMAL INHIBITORY CONCENTRATION MIC, pre-incubated in Mouse Serum): 2 mg/L (≈ 2.42 µM)
- MIC ([6]; GC2265, read-out: MINIMAL INHIBITORY CONCENTRATION MIC, pre-incubated in Water): 32 mg/L (≈ 38.7 µM)
- MIC ([7]; GC2270, read-out: MINIMAL INHIBITORY CONCENTRATION MIC, pre-incubated in Mouse Serum): 0.5 mg/L (≈ 0.605 µM)
- MIC ([7]; GC2270, read-out: MINIMAL INHIBITORY CONCENTRATION MIC, pre-incubated in Water): > 64 mg/L
- MIC ([8]; GC4563, read-out: MINIMAL INHIBITORY CONCENTRATION MIC, pre-incubated in Mouse Serum): < 0.06 mg/L
- MIC ([8]; GC4563, read-out: MINIMAL INHIBITORY CONCENTRATION MIC, pre-incubated in Water): < 0.06 mg/L
- MIC ([9]; GC3226, read-out: MINIMAL INHIBITORY CONCENTRATION MIC, pre-incubated in Mouse Serum): 1 mg/L (≈ 1.21 µM)
- MIC ([9]; GC3226, read-out: MINIMAL INHIBITORY CONCENTRATION MIC, pre-incubated in Water): > 64 mg/L
- MIC ([10]; GC2231, read-out: MINIMAL INHIBITORY CONCENTRATION MIC, pre-incubated in Mouse Serum): 2 mg/L (≈ 2.42 µM)
- MIC ([10]; GC2231, read-out: MINIMAL INHIBITORY CONCENTRATION MIC, pre-incubated in Water): > 64 mg/L
- MIC ([11]; GC2216, read-out: MINIMAL INHIBITORY CONCENTRATION MIC, pre-incubated in Mouse Serum): 0.5 mg/L (≈ 0.605 µM)
- MIC ([11]; GC2216, read-out: MINIMAL INHIBITORY CONCENTRATION MIC, pre-incubated in Water): 4 mg/L (≈ 4.84 µM)
- MIC ([12]; 20 h, read-out: Range of MIC, E. coli (Mouse Serum)): 0.5 to 2 mg/L (≈ 0.605 to 2.42 µM)
- MIC ([12]; read-out: Range of MIC, E. coli (Water)): > 64 mg/L
- MIC ([12]; read-out: Range of MIC, E. coli (mouse serum)): 0.5 to 2 mg/L (≈ 0.605 to 2.42 µM)
- MIC ([12]; read-out: Range of MIC, E. coli (water)): > 64 mg/L
- MIC ([13]; GC2243, read-out: MINIMAL INHIBITORY CONCENTRATION MIC, pre-incubated in Mouse Serum): 0.5 mg/L (≈ 0.605 µM)
- MIC ([13]; GC2243, read-out: MINIMAL INHIBITORY CONCENTRATION MIC, pre-incubated in Water): 2 mg/L (≈ 2.42 µM)
- MIC ([14]; GC2236, read-out: MINIMAL INHIBITORY CONCENTRATION MIC, pre-incubated in Mouse Serum): 1 mg/L (≈ 1.21 µM)
- MIC ([14]; GC2236, read-out: MINIMAL INHIBITORY CONCENTRATION MIC, pre-incubated in Water): > 64 mg/L
- MIC ([15]; GC2271, read-out: MINIMAL INHIBITORY CONCENTRATION MIC, pre-incubated in Mouse Serum): 0.5 mg/L (≈ 0.605 µM)
- MIC ([15]; GC2271, read-out: MINIMAL INHIBITORY CONCENTRATION MIC, pre-incubated in Water): > 64 mg/L
- MIC ([16]; GC2234, read-out: MINIMAL INHIBITORY CONCENTRATION MIC, pre-incubated in Mouse Serum): 0.5 mg/L (≈ 0.605 µM)
- MIC ([16]; GC2234, read-out: MINIMAL INHIBITORY CONCENTRATION MIC, pre-incubated in Water): > 64 mg/L
- MIC ([17]; read-out: Range of MIC, Staph (Mouse Serum)): 0.25 to 4 mg/L (≈ 0.303 to 4.84 µM)
- MIC ([17]; read-out: Range of MIC, Staph. (mouse serum)): 0.25 to 4 mg/L (≈ 0.303 to 4.84 µM)
- MIC ([18]; GC4556, read-out: MINIMAL INHIBITORY CONCENTRATION MIC, pre-incubated in Mouse Serum): 1 mg/L (≈ 1.21 µM)
- MIC ([18]; GC4556, read-out: MINIMAL INHIBITORY CONCENTRATION MIC, pre-incubated in Water): 32 mg/L (≈ 38.7 µM)
- MIC ([19]; GC6469, read-out: MINIMAL INHIBITORY CONCENTRATION MIC, pre-incubated in Mouse Serum): 4 mg/L (≈ 4.84 µM)
- MIC ([19]; GC6469, read-out: MINIMAL INHIBITORY CONCENTRATION MIC, pre-incubated in Water): > 64 mg/L
- MIC ([20]; GC2232, read-out: MINIMAL INHIBITORY CONCENTRATION MIC, pre-incubated in Mouse Serum): 0.5 mg/L (≈ 0.605 µM)
- MIC ([20]; GC2232, read-out: MINIMAL INHIBITORY CONCENTRATION MIC, pre-incubated in Water): > 64 mg/L
SMILES: CCCN(CC(=O)Nc1cc(N(C)C)c2c(c1O)C(=O)C1=C(O)[C@]3(O)C(=O)C(C(N)=O)=C(O)[C@@H](N(C)C)[C@@H]3C[C@@H]1C2)C(=O)OCOC(=O)c1ccc(-c2ccccc2)cc1 [Example 24, ({[(2-{[(5aR,6aS,7S,10aS)-9-(aminocarbonyl)-4,7-bis(dimethylamino)-1,8,10a,11-tetrahydroxy-10,12-dioxo-5,5a,6,6a,7,10,10a,12-octahydrotetracen-2-yl]amino}-2-oxoethyl)(propyl)amino]carbonyl}oxy)methyl 1,1′-biphenyl-4-carboxylate]

From patent US20070049564A1 (Wyeth, priority 2005, published 2007)
